“And” between values parts separate entries of the source, which are not always exact repeats. Identical values can stand only once. “Also recorded” adds a separate entry of the source.
Columns and labels:
[1] = tested on: hSOD1^G93A-expressing astrocytes; assay: cytochrome c release (co-localization of Cyt c with SOD2); format: cell-based, mouse; settings: DHPG 100 μM
Description: (§1) Pharmacological treatments in vitro. To assess the ability of TAT-BH4 to penetrate into cells, astrocytes (8×10^4 cells/well) were plated in 24-well plates containing glass coverslips. Cultures were treated with 10 μg/ml Hoechst 33342 (Sigma) for 15 min., quickly washed and incubated with 0.5 μM TAT-BH4 (TAT^48-57 conjugated to the BH4 domain of Bcl-XL) either unconjugated or conjugated with 5(6)-carboxyfluorescein (FAM, Primm srl) for 30 min. Peptides in excess were subsequently removed, cells were washed and immediately fixed (methanol:acetone 1:1 for 10 min.) or maintained in culture for 24 hrs and then fixed. The presence of the peptides inside the cells was evaluated by a digital camera (DFC 310 FX, Leica Microsystem) mounted on a DM5000 B microscope (Leica Microsystem) and analysed by Leica Application Suite 3.5.0 software. To test the protective efficacy of TAT-BH4, astrocytes in culture were pre-exposed to different concentrations of the peptide (0.1 and/or 0.5 μM, 30 min.), washed and then treated with DHPG (100 μM, 30 min., Tocris Cookson Ltd.) or staurosporine (1 μM, 6 hrs, Sigma-Aldrich). After removal of DHPG, astrocytes were allowed to recover at 37° C. for 24 hrs.
Cytochrome c release. […] Cytochrome c release from mitochondria was determined by its co-localization with the mitochondrial protein SOD2 using JACoP plug-in ImageJ. […]

[2] = tested on: hSOD1^G93A-expressing astrocytes; assay: astrocyte toxicity assay, DHPG challenge (nuclear condensation, active caspase-3); format: cell-based, mouse
Description: as §1, with “To test the protective efficacy of TAT-BH4, astrocytes in culture were pre-exposed to different concentrations of the peptide (0.1 and/or 0.5 μM, 30 min.), washed and then treated with DHPG (100 μM, 30 min., Tocris Cookson Ltd.) or staurosporine (1 μM, 6 hrs, Sigma-Aldrich). After removal of DHPG, astrocytes were allowed to recover at 37° C. for 24 hrs.” left out
(§2) Astrocyte toxicity assays. The toxic effect of DHPG or staurosporine on cultured astrocytes was determined by double staining with the fluorescent nuclear dye Hoechst 33342 and anti-active caspase-3 immunocytochemistry using a rabbit polyclonal antibody (1:50, Cell Signalling Technology). The number of astrocytes showing condensed nuclei and activated caspase-3 24 hrs after the pharmacological challenge was counted by two independent operators in a blind manner. […]

[3] = tested on: hSOD1^G93A-expressing astrocytes; assay: single-cell Fluo4 [Ca^2+]i imaging in hSOD1^G93A-expressing astrocytes; format: cell-based, mouse
Description: (§3) Astrocytes cultures. Primary astrocyte cultures (>99% GFAP-positive) were prepared from the spinal cord of newborn mice (hSOD1^G93A or wild-type littermates). Once the cultures reached the confluence, they were replated at the optimal density either in 24-well plates or 35-mm Petri dishes containing glass coverslips and maintained in Minimal Essential Medium (MEM, GIBCO) supplemented with 10% foetal bovine serum (FBS, Sigma-Aldrich).
(§4) [Ca^2+]i imaging. ASTROCYTES were plated (2.5×10^4 cells/35 mm Petri dish) on glass coverslips and used 2-3 days later as already shown. Before imaging, cells were loaded with 5 μM Fluo4-AM (Molecular Probes) for 15-20 min. at 37° C. in a HEPES-KRH buffer containing (in mM): NaCl 116, KCl 4, MgCl2 1, CaCl2 1.8, HEPES-acid 10, glucose 25 (pH 7.4) and then allowed to de-esterify for 10 min. After several washes, coverslips were mounted in an open perfusion micro-incubator (PDMI-2, Harvard Apparatus) set at 37° C. on the stage of the optical recording microscope. During experiments, cells were continuously perfused with HEPES-KRH (1 ml/min), and 100 μM DHPG was applied via a software-controlled micro-perfusion fast-step device (100 μl/min, Warner Instrument Corp.) A Zeiss Axiovert 200 inverted fluorescence microscope was modified to allow EPI illumination (Visitron Systems). Fluo4 fluorescence was recorded through a 63× or 40× objectives lens (Zeiss, Neofluar 63×/1.25 Oil, Neofluar 40×/1.3 Oil) and directed through a Zeiss filter set 10 (BP 450-490; BP 515-565) at 200- or 400 ms of intervals by imaging with excitation light at 488 nm generated by a polychromator illumination system (Visichrome, Visitron). Video images, digitized with MetaFluor, were analyzed with MetaMorph software (Universal Imaging). Temporal dynamics of Fluo4 fluorescence have been expressed as background-subtracted ΔF/F0(%), where F0 represents the fluorescence level of the cells before stimulation, and F represents the change in fluorescence occurring during the stimulus.
(§5) [Ca^2+]i imaging. The measurements of [Ca^2+]i were performed as described in Example 2. Briefly, cells were loaded with 5 μM Fluo4-AM and then allowed to de-esterify for 10 min.
(§6) After several washes, coverslips were mounted in an open perfusion micro-incubator set at 37° C. on the stage of the optical recording microscope. During experiments, cells were continuously perfused with HEPES-KRH (1 ml/min), and 0.5 μM TAT-BH4 was applied 30 min. before adding 100 μM DHPG via a software-controlled micro-perfusion fast-step device (100 μl/min, Warner Instrument Corp.).

[4] = tested on: wild-type astrocytes; assay: single-cell Fluo4 [Ca^2+]i imaging in wild-type astrocytes; format: cell-based, mouse
Description: as §3, §4, §5, §6

[5] = tested on: astrocyte cultures; assay: astrocyte toxicity assay, staurosporine challenge (nuclear condensation); format: cell-based, mouse
Description: as §1, with “To test the protective efficacy of TAT-BH4, astrocytes in culture were pre-exposed to different concentrations of the peptide (0.1 and/or 0.5 μM, 30 min.), washed and then treated with DHPG (100 μM, 30 min., Tocris Cookson Ltd.) or staurosporine (1 μM, 6 hrs, Sigma-Aldrich). After removal of DHPG, astrocytes were allowed to recover at 37° C. for 24 hrs.” left out
as §2

[6] = tested on: hSOD1^G93A mice; assay: chronic treatment of hSOD1^G93A mice: disease onset, rotarod, survival; format: in vivo, mouse; settings: 5 mg/kg i.p. daily from age 40 days
Description: Transgenic mice. Transgenic mice expressing human SOD1^G93A (B6SJL-TgN(SOD1-G93A)1Gur were purchased from The Jackson Laboratories. The colonies were maintained by breeding hemizygote males to wild-type C57BI6/SJL F1 hybrid females. Offspring were genotyped and used for subsequent studies. Animal procedures were approved by the Italian Ministry of Health.
(§7) Pharmacological treatment in vivo. hSOD1^G93A mice were administrated daily 5 mg/kg TAT-BH4 peptide in PBS containing 10% glycerol or vehicle alone (PBS plus 10% glycerol) intraperitoneally starting at the age of 40 days (n=14 mice for each condition). Mice were thereafter kept under daily observation and weighted twice a week. Age of disease onset was retrospectively determined as the time when mice reached the peak in the body weight. Motor performance was assessed twice a week by rotarod test starting at the age of 50 days. Briefly, animals were place on an accelerating rod (Ugo Basile) and the time each mouse remained on the rod was recorded. The average of three independent trials per session was used for further analysis of the data. End stage was defined as the time in which animals were unable to right themselves within 30 seconds when placed on their side.
Statistics. Data are represented as mean±s.e.m. and statistical significance is verified using GraphPad Prism software. Unpaired or paired 2-tailed t-test was used for comparisons between two groups; one-way or two-way analysis of variance (ANOVA) followed by Bonferroni post-hoc test was used for comparisons of multiple groups; repeated measures two-way ANOVA was used for behavioral test; the Logrank test was used for disease onset and survival analysis.

[7] = tested on: hSOD1^G93A mice; assay: histopathological analysis of spinal cord of treated hSOD1^G93A mice; format: in vivo, mouse; settings: 5 mg/kg i.p. daily
Text: Tissue preparation and immunohistological analysis. For mouse tissue preparation, the spine was taken and immersed in 4% buffered paraformaldehyde for 24 hrs; spinal cord was extracted, the lumbar tract was removed and either paraffin embedded or cryoprotected in 30% sucrose before freezing. For human tissue preparation, spinal cord was removed and 0.5 cm thick slices were taken from the cervical (C7), thoracic (T4 and T8) and lumbar (L1) levels. Slices were fixed in 10% buffered formalin and embedded in paraffin. Mouse or human spinal cords were sectioned at 5-10 μm and used to perform different immunostainings. On selected sections, the following primary antibodies were used: GFAP (mouse monoclonal antibody, 1:50, Dako), CD11b (rat monoclonal antibody, 1:500, Serotec), mGluR5 (rabbit polyclonal antibody, 1:100, MBL International Corporation); active caspase-3 (rabbit polyclonal antibody, 1:50, Cell Signalling Technology). For active caspase-3 immunostaining, a Tyramide Amplification System kit was used (Perkin Elmer, Inc.). For histopathological analysis, serial sections were either immunostained for GFAP/active caspase-3 or treated with 0.5% cresyl violet (Sigma Aldrich) to detect motor neuron Nissl substance. GFAP/active caspase-3 positive astrocytes and motor neurons were counted for a total of 9 disectors using an unbiased stereologic physical disector technique. Z-axis image stacks (z-step size: 0.5 μm) were collected to generate three-dimensional data sets of spinal cord sections on an MRC 1024 Bio-Rad confocal microscope with a 63× Plan Neofluar NA1,25 oil-immersion objective in condition of optimal iris diameter as defined by LaserSharp 2000 software. Quantitative analysis of punctuate mGluR5, GFAP or CD11 b stainings was performed on confocal acquired images (1024×1024 pixels) of the spinal cord ventral horns from both wild-type and SOD1^G93A animals using ImageJ software (National Institutes of Health). After establishing an intensity threshold, the software calculated the percentage of area occupied by mGluR5, GFAP or CD11b staining by dividing the area of immunopositivity by the total area.
as §7

[8] = TAT-BH4 0.5 μM 30 min before DHPG 100 μM
[9] = TAT-BH4 0.5 μM 30 min before STS 1 μM

NC(C(=O)O)c1cc(O)cc(O)c1 (racemic) [DHPG, (RS)-3,5-dihydroxyphenylglycine, reference compound]
mitochondria and cytochrome c, effect of DHPG [1]: causes mitochondrial disarrangement and release of cytochrome c | percentage of astrocytes with nuclear condensation and caspase-3 activation, effect of DHPG ([2]; DHPG 100 μM, compared with wild-type cells): induces an increment | change of initial [Ca^2+]i transient (ΔF/F0) with respect to wild-type cells ([3]; DHPG 100 μM): −63% | peak amplitude of initial DHPG-evoked [Ca^2+]i transient ([3]; DHPG 100 μM): 0.1±0.08 ΔF/F0 | time to plateau of long-lasting [Ca^2+]i rise ([3]; DHPG 100 μM): about 10 min | average [Ca^2+]i oscillation frequency ([4]; DHPG 100 μM): 17±2.5 mHz | peak amplitude of initial DHPG-evoked [Ca^2+]i transient ([4]; DHPG 100 μM): 0.27±0.18 ΔF/F0

H2N-GRKKRRQRRRGGSNRELVVDFLSYKLSQKGYS-COOH (H-GRKKRRQRRRGGSNRELVVDFLSYKLSQKGYS-OH) [TAT-BH4, BH4 domain of Bcl-XL fused via GG to the protein transduction domain of the HIV TAT protein]
release of cytochrome c / co-localization of Cyt c and SOD2 after DHPG, effect of peptide ([1]; TAT-BH4 0.5 μM 30 min pre-treatment): restores the complete co-localization of the two proteins; also recorded: significant reduction | percentage of astrocytes with nuclear condensation and caspase-3 activation after DHPG, effect of peptide ([2]; TAT-BH4 0.5 μM 30 min pre-treatment, DHPG 100 μM 30 min, 24 hrs recovery): significantly reduced; also recorded: significant reduction | average [Ca^2+]i oscillation frequency after DHPG [3, 8]: 14±3.1 mHz | percentage of cells in which DHPG evokes a single [Ca^2+]i transient followed by sustained [Ca^2+]i oscillations (pattern as in wild-type) [3, 8]: 100% and 99% | [Ca^2+]i response to local application of the peptide alone ([3]; TAT-BH4 0.5 μM, 30 min): immediate [Ca^2+]i rise followed by sustained [Ca^2+]i oscillations | change of persistent [Ca^2+]i rise evoked by STS, with respect to STS alone [4, 9]: −72% | effect on [Ca^2+]i oscillations in STS-treated cells [4, 9]: restored [Ca^2+]i oscillations; also recorded: re-establishment of [Ca^2+]i oscillations | [Ca^2+]i response to local application of the peptide alone ([4]; TAT-BH4 0.5 μM, 30 min): immediate [Ca^2+]i rise followed by sustained [Ca^2+]i oscillations | cells with nuclear condensation (apoptotic cells) after STS, effect of peptide ([5]; TAT-BH4 0.1 or 0.5 μM 30 min pre-incubation, STS 1 μM 6 h): reduced the number of apoptotic cells in a dose-dependent manner; also recorded: potently inhibited in a dose-dependent fashion | extension of life span [6]: 15 days | rotarod motor performance compared to saline-treated animals [6]: significantly improves motor performance; also recorded: performed significantly better | age at disease onset (peak body weight) ([6]; n=14): 107.5 ± 1.8 days | survival time ([6]; n=14): 138 ± 2.1 days | delay of onset of symptoms compared to controls ([6]; onset = peak body weight): 8 days | CD11b-immunopositive microglial cells ([7]; n=18 fields from three mice): 1040.7±20.4 cells/mm^2 | GFAP-positive astrocytes in spinal ventral horns ([7]; n=18 fields from three mice): 917.9±33.1 cells/mm^2 | change in number of spheroid astrocytes immunopositive for active caspase-3, with respect to saline-treated mice ([7]; 100 day-old mice): −74% | number of caspase-3-positive cells compared to saline ([7]; 100 day-old mice): significantly lower | number of motor neurons in spinal cord ([7]; 100 day-old mice): preservation of a greater number of motor neurons

CN[C@@H]1C[C@H]2O[C@@](C)([C@@H]1OC)n1c3ccccc3c3c4c(c5c6ccccc6n2c5c31)C(=O)NC4 [STS, staurosporine, reference compound]
amplitude of [Ca^2+]i plateau ([4]; STS 1 μM): 3.52±0.22 ΔF/F0 | time to plateau of long-lasting calcium rise ([4]; STS 1 μM): 75 to 80 min | percentage of cells with nuclear condensation, effect of STS ([5]; STS 1 μM, 6 h): caused an increment in the percentage of cells with nuclear condensation

Source: patent US8778884B2, “Glioprotectant peptide for use in the treatment of amyotrophic lateral sclerosis (ALS) and methods related thereto” (Fondazione Salvatore Maugeri Clinica del Lavora e Della …, priority 2011, dated 2014)
